# According to patent publication US20260184675A1, “CHIRAL ISOMERIC SULFITE COMPOUND AND APPLICATION THEREOF” (Chengdu Hanova BioSciences Co., Ltd, priority 2024, published 2026):
# Key:
# eggs of Aleyrodidae = experiment: Effect on hatching of eggs of Aleyrodidae, leaf disc method; type: in vivo; settings: 10 ppm; for Hatching rate (%), Replicate 1 / Hatching rate (%), Replicate 2 / Hatching rate (%), Replicate 3 / Number of hatched larvae 5 days after insecticide delivery, Replicate 1 / Number of hatched larvae 5 days after insecticide delivery, Replicate 2 / Number of hatched larvae 5 days after insecticide delivery, Replicate 3: Aleyrodidae eggs; for Hatching rate (%), Replicate 1 / Hatching rate (%), Replicate 2 / Hatching rate (%), Replicate 3: 5 days after delivery; for Number of hatched larvae 5 days after insecticide delivery, Replicate 1 / Number of hatched larvae 5 days after insecticide delivery, Replicate 2 / Number of hatched larvae 5 days after insecticide delivery, Replicate 3: leaf disc
# How it was run: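 Inhibition of Aleyrodidae egg hatching was tested with a leaf disc method at 10 ppm. Egg numbers on each disc were counted under a microscope before treatment. Discs bearing eggs were soaked for 10 seconds in clear water or test solution, removed, and kept under moist conditions. Hatching was checked five days after insecticide delivery and hatched larvae were counted.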
# [1] = tested on: eggs of Spodoptera litura; experiment: Effect on hatching of eggs of Spodoptera litura, egg piece soaking; type: in vivo; settings: 500 ppm; for Hatching rate (%), Replicate 1 / Hatching rate (%), Replicate 2 / Hatching rate (%), Replicate 3 / Number of unhatched larvae 4 days after insecticide delivery, Replicate 1 / Number of unhatched larvae 4 days after insecticide delivery, Replicate 2 / Number of unhatched larvae 4 days after insecticide delivery, Replicate 3: Spodoptera litura eggs; for Hatching rate (%), Replicate 1 / Hatching rate (%), Replicate 2 / Hatching rate (%), Replicate 3: 4 days after delivery; for Number of unhatched larvae 4 days after insecticide delivery, Replicate 1 / Number of unhatched larvae 4 days after insecticide delivery, Replicate 2 / Number of unhatched larvae 4 days after insecticide delivery, Replicate 3: soaked 10 minutes
# How it was run: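 Egg pieces of about 60 eggs were soaked 10 min in test agent at 500 ppm, blotted, then held singly at 24±1 °C, 80±10% RH, 12:12 L:D. Hatched and unhatched eggs were counted on day 4 to give hatching rate and control effect; 3 replicates.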
# eggs of Panonychus citri = experiment: Effect on hatching of eggs of Panonychus citri, leaf disc method; type: in vivo; settings: 1 ppm; for Hatching rate (%), Replicate 1 / Hatching rate (%), Replicate 2 / Hatching rate (%), Replicate 3 / Number of hatched larvae 5 days after insecticide delivery, Replicate 1 / Number of hatched larvae 5 days after insecticide delivery, Replicate 2 / Number of hatched larvae 5 days after insecticide delivery, Replicate 3: Panonychus citri eggs; for Hatching rate (%), Replicate 1 / Hatching rate (%), Replicate 2 / Hatching rate (%), Replicate 3: 5 days after delivery; for Number of hatched larvae 5 days after insecticide delivery, Replicate 1 / Number of hatched larvae 5 days after insecticide delivery, Replicate 2 / Number of hatched larvae 5 days after insecticide delivery, Replicate 3: leaf disc
# [2] = tested on: eggs of Harmonia axyridis; experiment: Effect on hatching of eggs of Harmonia axyridis, egg card immersion; type: in vivo; settings: 100 ppm; for Number of hatched larvae 4 days after insecticide delivery, Replicate 1 / Number of hatched larvae 4 days after insecticide delivery, Replicate 2 / Number of hatched larvae 4 days after insecticide delivery, Replicate 3: Harmonia axyridis egg cards, immersed 30 seconds; for Hatching rate (%), Replicate 1 / Hatching rate (%), Replicate 2 / Hatching rate (%), Replicate 3: Harmonia axyridis eggs, 4 days after delivery
# How it was run: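 Egg cards (~20 eggs each) dipped 30 s in 100 ppm insecticide, air dried and kept moist at 27° C; 5 cards per treatment, 3 replicates. Hatching assessed 4 days after treatment against pre-treatment egg counts, and control effect calculated by formula.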
# Magnaporthe grisea = type: cell-based; settings: 100 ppm; for Average antifungal rate (%) / Antifungal rate of Magnaporthe grisea (%), Replicate 1 / Antifungal rate of Magnaporthe grisea (%), Replicate 2 / Antifungal rate of Magnaporthe grisea (%), Replicate 3: 96-well plate; for Average antifungal rate (%): average of 3 replicates
SMILES,"Hatching rate (%), Replicate 1 (eggs of Aleyrodidae) [%]","Hatching rate (%), Replicate 2 (eggs of Aleyrodidae) [%]","Hatching rate (%), Replicate 3 (eggs of Aleyrodidae) [%]","Number of hatched larvae 5 days after insecticide delivery, Replicate 1 (eggs of Aleyrodidae)","Number of hatched larvae 5 days after insecticide delivery, Replicate 2 (eggs of Aleyrodidae)","Number of hatched larvae 5 days after insecticide delivery, Replicate 3 (eggs of Aleyrodidae)","Hatching rate (%), Replicate 1 [1] [%]","Hatching rate (%), Replicate 2 [1] [%]","Hatching rate (%), Replicate 3 [1] [%]","Number of unhatched larvae 4 days after insecticide delivery, Replicate 1 [1]","Number of unhatched larvae 4 days after insecticide delivery, Replicate 2 [1]","Number of unhatched larvae 4 days after insecticide delivery, Replicate 3 [1]","Hatching rate (%), Replicate 1 (eggs of Panonychus citri) [%]","Hatching rate (%), Replicate 2 (eggs of Panonychus citri) [%]","Hatching rate (%), Replicate 3 (eggs of Panonychus citri) [%]","Number of hatched larvae 5 days after insecticide delivery, Replicate 1 (eggs of Panonychus citri)","Number of hatched larvae 5 days after insecticide delivery, Replicate 2 (eggs of Panonychus citri)","Number of hatched larvae 5 days after insecticide delivery, Replicate 3 (eggs of Panonychus citri)","Number of hatched larvae 4 days after insecticide delivery, Replicate 1 [2]","Number of hatched larvae 4 days after insecticide delivery, Replicate 2 [2]",other results
CC(C)(COc1ccc(Cl)cc1Cl)OS(=O)OCCF (stereo not shown) [Compound R-10],9.79,9.42,9.92,14,13,12,60.87,64.15,62.07,27,19,22,9.65,9.78,10.37,11,9,14,15,10,"Number of hatched larvae 4 days after insecticide delivery, Replicate 3 [2]: 13; Hatching rate (%), Replicate 1 [2]: 12.00%; Hatching rate (%), Replicate 2 [2]: 11.90%; Hatching rate (%), Replicate 3 [2]: 12.87%; inhibitory rate against Magnaporthe grisea (in words) (Magnaporthe grisea): strong inhibitory rate; Average antifungal rate (%) (Magnaporthe grisea): 82.52%; Antifungal rate of Magnaporthe grisea (%), Replicate 1 (Magnaporthe grisea): 81.97%; Antifungal rate of Magnaporthe grisea (%), Replicate 2 (Magnaporthe grisea): 83.68%; Antifungal rate of Magnaporthe grisea (%), Replicate 3 (Magnaporthe grisea): 81.92%"
CC(C)(COc1ccc(Cl)cc1Cl)OS(=O)OCCF (stereo not shown) [Compound S-10],0.00,0.00,0.00,0,0,0,21.43,22.86,24.19,44,54,47,0.00,0.00,0.00,0,0,0,0,0,"inhibitory activity on the hatching of eggs of Aleyrodidae (in words) (eggs of Aleyrodidae): strong inhibitory activities; inhibitory activity on the hatching of eggs of Spodoptera litura (in words) [1]: good inhibitory activities; inhibitory effect on the hatching of eggs of Panonychus citri (in words) (eggs of Panonychus citri): good inhibitory effects; inhibitory activity on the hatching of eggs of Harmonia axyridis (in words) [2]: strong inhibitory activities; Number of hatched larvae 4 days after insecticide delivery, Replicate 3 [2]: 0; Hatching rate (%), Replicate 1 [2]: 0.00%; Hatching rate (%), Replicate 2 [2]: 0.00%; Hatching rate (%), Replicate 3 [2]: 0.00%; inhibitory rate against Magnaporthe grisea (in words) (Magnaporthe grisea): strong inhibitory rate; Average antifungal rate (%) (Magnaporthe grisea): 98.62%; Antifungal rate of Magnaporthe grisea (%), Replicate 1 (Magnaporthe grisea): 98.63%; Antifungal rate of Magnaporthe grisea (%), Replicate 2 (Magnaporthe grisea): 99.72%; Antifungal rate of Magnaporthe grisea (%), Replicate 3 (Magnaporthe grisea): 97.51%"
CC(C)(COS(=O)OCCF)Oc1ccc(Cl)cc1Cl (stereo not shown) [R-10′],9.77,10.23,10.16,13,9,13,61.82,62.07,63.64,21,22,24,10.29,10.31,9.62,14,10,10,17,14,"Number of hatched larvae 4 days after insecticide delivery, Replicate 3 [2]: 12; Hatching rate (%), Replicate 1 [2]: 12.78%; Hatching rate (%), Replicate 2 [2]: 13.73%; Hatching rate (%), Replicate 3 [2]: 12.77%; inhibitory rate against Magnaporthe grisea (in words) (Magnaporthe grisea): strong inhibitory rate; Average antifungal rate (%) (Magnaporthe grisea): 82.60%; Antifungal rate of Magnaporthe grisea (%), Replicate 1 (Magnaporthe grisea): 82.71%; Antifungal rate of Magnaporthe grisea (%), Replicate 2 (Magnaporthe grisea): 81.95%; Antifungal rate of Magnaporthe grisea (%), Replicate 3 (Magnaporthe grisea): 83.14%"
